Patent publication US11384142B2, “Combination therapy for the treatment of ovarian cancer” (Hoffmann-La Roche Inc., priority 2012, dated 2022)

Test system: platinum-resistant ovarian cancer (epithelial ovarian, fallopian tube or primary peritoneal cancer)
Assay: AURELIA Phase III trial, efficacy (PFS by RECIST, ORR)
Assay type: in vivo, human
Settings: for PFS Events, % / PFS Median, mo / ORR, %: by chemotherapy cohort; for ORR, %: overall response rate (RECIST and/or CA-125)
Source text: The AURELIA trial evaluated the efficacy and safety of bevacizumab in combination with chemotherapy for platinum-resistant ovarian cancer. This study was designed as a prospective, open-label, randomised, two-arm Phase III evaluation of bevacizumab plus chemotherapy versus chemotherapy alone. To be eligible, patients must have ovarian cancer that progressed within 6 months of previous platinum-based therapy. Paclitaxel, topotecan or pegylated liposomal doxorubicin (PLD) was selected as chemotherapeutic combination partners since they are commonly used for treatment of platinum-resistant disease. By adding bevacizumab to chemotherapy, the AURELIA trial aimed to improve PFS for this group of patients who have limited therapeutic options and face a particularly poor prognosis. The primary objective was to compare progression-free survival (PFS) of patients randomised to selected chemotherapy only or to selected chemotherapy plus bevacizumab.
Study Design—This trial consisted of two (2) treatment arms: chemotherapy-alone (Arm 1) and chemotherapy plus bevacizumab (Arm 2). Patients were randomly assigned (1:1) to either arm, see FIG. 1.
Eligible patients received one of the following chemotherapies on a 4-week cycle at the discretion of the investigator: • a. Paclitaxel 80 mg/m^2 as a 1-hour i.v. infusion on days 1, 8, 15 and 22 q4w. • b. Topotecan 4 mg/m^2 as a 30 minute i.v. infusion on days 1, 8 and 15 q4w. Alternatively, a 1.25 mg/m^2 dose can be administered over 30 minutes on days 1-5 every three weeks. • c. Pegylated liposomal doxorubicin 40 mg/m^2 as a 1 mg/min i.v. infusion on day 1 only, q4w. After cycle 1, the drug can be delivered as a 1 h infusion.
The chemotherapy was selected from one of those described in Arm 1 at the discretion of the investigator. The chosen chemotherapy was initially combined with bevacizumab 10 mg/kg i.v. every two weeks (or 15 mg/kg every three weeks if used in combination with topotecan 1.25 mg/m^2 on days 1-5 of a every three weeks schedule). The initial bevacizumab infusion was over 90 minutes, with subsequent infusions over 60 minutes and then 30 minutes, as tolerated. Bevacizumab was administered before the chemotherapy at the first cycle and then administered prior or after the chemotherapy at subsequent cycles. In case chemotherapy was completed before diagnosis of progressive disease, patients continued to receive bevacizumab as either: (a) 10 mg/kg i.v. every two weeks; or (b) 15 mg/kg every three weeks if topotecan was selected and administered at a dose of 1.25 mg/m^2 on days 1-5 of a every three weeks schedule. After disease progression, patients received standard of care treatment.
Analyses of PFS and ORR was based on tumour assessments (based on RECIST criteria) using cross sectional imaging (preferably by CT or MRI in case of contrast allergy) of the pelvis and abdomen and (by X-ray or preferably by CT-scan) of the chest. The same assessment technique was used throughout the study to evaluate a particular lesion.
Tumour assessments were performed at baseline then every 8 weeks (every 9 weeks for patients treated with 1.25 mg/m^2 topotecan on days 1-5 of a every three weeks cycle). Responses were confirmed by a second CT scan performed not earlier than 4 weeks after the criteria for response were first met.
Progressive serial elevation of serum CA-125 were used to determine CA-125 response and biological progression-free interval (PFIbio). Overall survival was measured from the date of randomisation to the date of death from any cause.
Eligible patients had ovarian cancer (measurable by RECIST 1.0 or assessable) that had progressed ≤6 mo after ≥4 cycles of platinum-based therapy. Patients with refractory ovarian cancer, history of bowel obstruction or >2 prior anticancer regimens were ineligible. […]

Molecule	PFS Events, % [%]	PFS Median, mo [mo]	ORR, % [%]	overall response rate (ORR) by RECIST, CA-125 or both (FIG. 3) (bevacizumab added to chemotherapy vs chemotherapy alone)
CC(=O)O[C@H]1C(=O)[C@@]2(C)[C@H]([C@H](OC(=O)c3ccccc3)[C@]3(O)C[C@H](OC(=O)[C@H](O)[C@@H](NC(=O)c4ccccc4)c4ccccc4)C(C)=C1C3(C)C)[C@]1(OC(C)=O)CO[C@@H]1C[C@@H]2O [PAC CT, paclitaxel]	89	3.9	28.8	–
CC[C@@]1(O)C(=O)OCc2c1cc1n(c2=O)Cc2cc3c(CN(C)C)c(O)ccc3nc2-1 [TOP CT, topotecan]	89	2.1	3.3	–
bevacizumab (antibody, V domains shown, amino acid sequence of humanized antibody variable heavy chain; amino acid sequence of humanized antibody variable light chain, recombinant humanized anti-VEGF monoclonal antibody) VH: EVQLVESGGGLVQPGGSLRLSCAASGYTFTNYGMNWVRQAPGKGLEWVGWINTYTGEPTYAADFKRRFTFSLDTSKSTAYLQMNSLRAEDTAVYYCAKYPHYYGSSHWYFDVWGQGTLVTVSS VL: DIQMTQSPSSLSASVGDRVTITCSASQDISNYLNWYQQKPGKAPKVLIYFTSSLHSGVPSRFSGSGSGTDFTLTISSLQPEDFATYYCQQYSTVPWTFGQGTKVEIKR	–	–	–	increased the overall response rate (ORR)
